Assays:
[1] = QUASAR2 trial: adverse events graded after each treatment cycle with NCI CTCAE version 3.0; assay type: in vivo, human
Method: The QUASAR2 study (http://www.octo-oxford.org.uk/alltrials/infollowup/q2.html; http://www.controlled-trials.com/ISRCTN45133151/) is a phase III randomised controlled trial of capecitabine (Xeloda) (1250 mg/m2 twice daily d1-14 every 3 weeks, total of 8 cycles)+/−bevacizumab (7.5 mg/kg every three weeks) following resection of stage II/III CRC. Patients were entered into the study between July 2005 and December 2011 at 123 UK and 81 non-UK sites. Of 1119 patients with blood collected as of July 2010, 1046 were selected for study based on availability of clinical data and informed consent.
Adverse events were graded following each treatment cycle using the NCI Common Toxicity Criteria for Adverse Events (CTCAE) version 3.0. Common capecitabine-induced toxicities—diarrhoea, nausea and vomiting, mucositis/stomatitis, neutropaenia, thrombocytopaenia, and HFS—were analysed individually and also in combination as “global” toxicity. Adverse events were categorised as low (CTCAE grade 0/1/2) and high (CTCAE grade 3/4/5 at any treatment cycle). Hypertension and proteinuria were clearly related to bevacizumab (˜10-fold higher incidence) and were not included in the analysis.
Genome wide SNP genotypes and per treatment cycle toxicity data was available for 930 patients with stage II and III colorectal cancer treated with capecitabine in the QUASAR2 trial. […] Genotype data was imputed using IMPUTE2 and the UK10K and 1000 genomes merged reference panels. Common Terminology Criteria for Adverse Events (CTCAE) v3.0 was used to grade toxicity events. Patients with ≥grade 3 toxicities in the first two treatment cycles and across all cycles were coded as cases for analysis. Binary coded variables were generated for capecitabine-induced toxicities: diarrhoea, haematological, hand-foot syndrome, mucositis and vomiting. The mucositis toxicity variable captured cases with mucositis and/or stomatitis and haematological toxicity consisted of neutropenia and/or thrombocytopenia cases. A global toxicity phenotype was also analysed with cases having any grade 3 event of one of the aforementioned toxicities. The study was powered at 80% to detect variants with MAF>10% having effect sizes≥2. Association testing was performed using SNPTEST v2.5. The two QUASAR2 trial arms (capecitabine alone and capecitabine plus bevacizumab) were analysed separately and then meta-analysed using META v1.7. […] Gene annotation of the outputs was performed using Variant Effect Predictor (VEP) and ANNOVAR to determine the impact of each variant and distance to the nearest gene. Top independent SNPs were identified from multi-SNP-based conditional and joint association (COJO) analysis using Genome-wide Complex Trait Analysis (GCTA). V1.93.2. Receiver operator curve (ROC) analysis was performed in statistical software R.

[2] = cited from earlier work
[3] = target: T1, dihydropyrimidine dehydrogenase (DPYD) (Homo sapiens, UniProt Q12882); conditions: cited from earlier work
T1 construct: degraded in the liver by dihydropyrimidine dehydrogenase (DPYD); host or cells: liver (in vivo, endogenous enzyme)
T1 sequence (Q12882 4-1025): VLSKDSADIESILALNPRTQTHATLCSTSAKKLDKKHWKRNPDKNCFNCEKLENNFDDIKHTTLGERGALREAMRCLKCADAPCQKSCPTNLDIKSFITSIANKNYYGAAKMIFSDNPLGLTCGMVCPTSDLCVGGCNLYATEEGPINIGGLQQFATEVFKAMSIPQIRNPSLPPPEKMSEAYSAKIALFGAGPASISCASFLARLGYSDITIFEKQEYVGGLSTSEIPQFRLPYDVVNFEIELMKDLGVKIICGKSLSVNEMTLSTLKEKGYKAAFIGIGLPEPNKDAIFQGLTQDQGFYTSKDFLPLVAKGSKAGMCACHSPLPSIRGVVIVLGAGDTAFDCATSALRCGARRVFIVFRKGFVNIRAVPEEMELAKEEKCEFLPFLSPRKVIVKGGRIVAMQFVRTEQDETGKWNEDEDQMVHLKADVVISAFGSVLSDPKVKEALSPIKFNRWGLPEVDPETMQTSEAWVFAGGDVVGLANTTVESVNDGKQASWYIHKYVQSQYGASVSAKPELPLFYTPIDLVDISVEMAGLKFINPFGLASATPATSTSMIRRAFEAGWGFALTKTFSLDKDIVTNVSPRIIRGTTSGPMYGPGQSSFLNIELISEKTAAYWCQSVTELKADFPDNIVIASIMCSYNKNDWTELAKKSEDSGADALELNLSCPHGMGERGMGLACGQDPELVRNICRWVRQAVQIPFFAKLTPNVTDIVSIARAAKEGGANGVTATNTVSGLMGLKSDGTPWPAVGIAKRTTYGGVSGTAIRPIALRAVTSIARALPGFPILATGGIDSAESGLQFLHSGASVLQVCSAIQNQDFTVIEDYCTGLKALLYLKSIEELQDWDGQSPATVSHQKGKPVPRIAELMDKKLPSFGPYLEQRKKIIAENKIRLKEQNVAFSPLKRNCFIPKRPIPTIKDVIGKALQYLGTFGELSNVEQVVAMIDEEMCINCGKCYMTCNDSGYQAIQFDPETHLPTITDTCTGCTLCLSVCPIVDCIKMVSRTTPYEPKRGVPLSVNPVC

[4] = early onset, Cycles 1 & 2 (n = 930), QUASAR 2

Which “higher incidence of hypertension and proteinuria” value ([1]; QUASAR2, capecitabine plus bevacizumab arm versus capecitabine alone) does the source give for “bevacizumab: given with capecitabine in one QUASAR2 arm (7.5 mg/kg every three weeks)” here?
Its value is about 10 fold.

For `CCCCCOC(=O)Nc1nc(=O)n(C2OC(C)C(O)C2O)cc1F` (centres unmarked) [capecitabine, pentyl [1-(3,4-dihydroxy-5-methyltetrahydrofuran-2-yl)-5-fluoro-2-oxo-1H-pyrimidin-4-yl]carbamate], which “Diarrhoea, Grade 0-2 (%)” value [1, 4] is on record?
The value was 92.9%.

And the “Diarrhoea, Grade 3-4 (%)” value [1, 4]?
The value was 6.9%.

What about the “Global toxicity, Grade 0-2 (%)” value [1, 4] of the same compound?
Its value is 84.6%.

What about the “Global toxicity, Grade 3-4 (%)” value [1, 4] of the same compound?
The value was 15.3%.

What about the “Haematological toxicity, Grade 0-2 (%)” value [1, 4] of the same compound?
The value was 98.4%.

And the “Haematological toxicity, Grade 3-4 (%)” value [1, 4]?
Its value is 1.3%.

And the “Hand-foot syndrome, Grade 0-2 (%)” value [1, 4]?
The value was 91.4%.

What about the “Hand-foot syndrome, Grade 3-4 (%)” value [1, 4] of the same compound?
The value was 8.3%.

And the “Mucositis, Grade 0-2 (%)” value [1, 4]?
The value was 98.7%.

What about the “Mucositis, Grade 3-4 (%)” value [1, 4] of the same compound?
Its value is 1.1%.

And the “Vomiting, Grade 0-2 (%)” value [1, 4]?
The value was 98.7%.

What about the “Vomiting, Grade 3-4 (%)” value [1, 4] of the same compound?
Its value is 0.9%.

And the “share of patients who suffer dose-limiting levels of drug-induced adverse events” value ([2]; capecitabine patients)?
The value was “approximately one third”.

And the “mortality from rapid onset of toxicity relative to infusional and bolus 5-FU regimens (0.5% to 2%)” value ([2]; capecitabine schedules)?
The value was “about half that number”.

With `O=c1[nH]cc(F)c(=O)[nH]1` [5-FU, 5-fluorouracil] as the compound, how does the “share of drug degraded in the liver by DPYD prior to activation” value [3] read?
Its value is about 80%.

What about the “mortality (Grade 5, CTCAE version 3.0) associated with use” value ([2]; overall) of the same compound?
The value was 0.5-1.0%.

What about the “patients who suffer substantial toxicities (Grade 3 or above, CTCAE version 3.0)” value ([2]; patients administered 5-FU-based therapy) of the same compound?
The value was 10-30%.

What about the fatality rate ([2]; patients with colorectal cancer, serious toxicities from 5-FU) of the same compound?
Its fatality rate is “approximately 1%”.

And the “share of patients who experienced serious (CTCAE≥grade 3) toxicities” value ([2]; patients with colorectal cancer)?
The value was “Approximately a third”.

Reference: patent US20240352536A1, “Assay for Predicting Risk of Capecitabine-Induced Toxicity in a Subject” (Oxford University Innovation Ltd., priority 2021, published 2024)
